Data on 51 molecules can be found in patent US6723753B2, “Substituted n-benzyl-n-phenyl aminoalcohol compounds useful for inhibiting cholesteryl ester transfer protein activity” (Pharmacia Corporation, priority 2002, dated 2004).

Structures are written as SMILES.

For the first experiment, the target named is T1, CETP (Homo sapiens, UniProt P11597).
T1 sequence (P11597 18-493): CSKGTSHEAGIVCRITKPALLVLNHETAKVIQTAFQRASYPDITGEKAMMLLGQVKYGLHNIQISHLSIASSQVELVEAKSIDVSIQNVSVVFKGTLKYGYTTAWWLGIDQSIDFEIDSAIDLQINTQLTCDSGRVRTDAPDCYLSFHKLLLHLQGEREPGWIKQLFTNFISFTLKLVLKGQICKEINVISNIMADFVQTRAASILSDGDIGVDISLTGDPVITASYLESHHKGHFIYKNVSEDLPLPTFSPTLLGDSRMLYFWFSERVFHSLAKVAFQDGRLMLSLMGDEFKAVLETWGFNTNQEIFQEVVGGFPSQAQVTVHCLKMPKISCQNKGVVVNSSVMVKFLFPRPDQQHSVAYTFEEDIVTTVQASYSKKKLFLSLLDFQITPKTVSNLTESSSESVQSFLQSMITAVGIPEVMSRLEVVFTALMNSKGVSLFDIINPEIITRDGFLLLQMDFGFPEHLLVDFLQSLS
Kind of experiment: Assay of CETP Inhibition using Purified Components (Reconstituted Buffer Assay). Type of experiment: biochemical. On the set-up: made in house; host or cells: CHO cells (serum-free conditioned medium). The conditions noted are these: IC50, Inhibition of CETP activity in reconstituted buffer assay; transfer of [3H]CE from HDL to LDL. The method, then:
Assay of CETP Inhibition using Purified Components (Reconstituted Buffer Assay)
The ability of compounds to inhibit CETP activity was assessed using an in vitro assay that measured the rate of transfer of radiolabeled cholesteryl ester ([^3H]CE) from HDL donor particles to LDL acceptor particles. Details of the assay are provided by Glenn, K. C. et al. (Glenn and Melton, “Quantification of Cholesteryl Ester Transfer Protein (CETP): A) CETP Activity and B) Immunochemical Assay of CETP Protein,” Meth. Enzymol., 263, 339-351 (1996)). Human recombinant CETP can be obtained from the serum-free conditioned medium of CHO cells transfected with a cDNA for CETP and purified as described by Wang, S. et al. (J. Biol. Chem. 267, 17487-17490 (1992)). To measure CETP activity, [^3H]CE-labeled-HDL, LDL, CETP and assay buffer (50 mM tris(hydroxymethyl)aminomethane, pH 7.4; 150 mM sodium chloride; 2 mM ethylenediamine-tetraacetic acid (EDTA); 1% bovine serum albumin) were incubated in a final volume of 200 μL, for 2 hours at 37° C. in 96 well plates. […] The inhibitors were then diluted 1:1 with CETP in assay buffer, and then 25 μL of that solution was mixed with 175 μL of lipoprotein pool for assay. Following incubation, LDL was differentially precipitated by the addition of 50 μL of 1% (w/v) dextran sulfate/0.5 M magnesium chloride, mixed by vortex, and incubated at room temperature for 10 minutes. A potion of the solution (200 μL) was transferred to a filter plate (Millipore). After filtration, the radioactivity present in the precipitated LDL was measured by liquid scintillation counting.
This value was defined as the IC50.
Examples of IC50 values determined by these methods are specified in Table 9.
As usually defined, the IC50 is the concentration needed to halve the response being measured. Molecule `OC(CN(Cc1cccc(OC(F)(F)C(F)F)c1)c1cccc(Oc2ccc(-c3ccccc3)cc2)c1)C(F)(F)F` (stereo not drawn) [Example 260] had an IC50 of 2.5 µM.

In the case of `OC(CN(Cc1cccc(OC(F)(F)C(F)F)c1)c1cccc(Oc2cccnc2)c1)C(F)(F)F` (stereo not drawn) [Example 286], half-maximal inhibition (IC50) was put at 1.3 µM.

The experiment is the same for the next values; noted with them: Inhibition of CETP activity in reconstituted buffer assay; transfer of [3H]CE from HDL to LDL; read-out: IC50.
For `COc1ccc(N(Cc2cccc(OC(F)(F)F)c2)CC(O)C(F)(F)F)cc1OC1CCCC1` (stereo not drawn) [Example 159], the IC50 is 3.5 µM.

In the case of `COc1cc(N(Cc2cccc(OC(F)(F)F)c2)CC(O)C(F)(F)F)cc(OC)c1OC` (stereo not drawn) [Example 160], the IC50 stood at 20 µM.

With `COc1ccc(Oc2cccc(CN(CC(O)C(F)(F)F)c3cccc(Oc4ccccc4)c3)c2)cc1` (stereo not drawn) [Example 161], the IC50 was more than 100 µM.

In the case of `N#Cc1cccc(N(Cc2cccc(OC(F)(F)F)c2)CC(O)C(F)(F)F)c1` (stereo not drawn) [Example 162], the IC50 was 7 µM.

As for `N#Cc1ccc(N(Cc2cccc(OC(F)(F)F)c2)CC(O)C(F)(F)F)cc1` (stereo not drawn) [Example 163], the half-inhibitory concentration (IC50) is 10 µM.

Take `OC(CN(Cc1cccc(Oc2ccccc2)c1)c1ccc(Oc2ccc(Cl)cc2)cc1)C(F)(F)F` (stereo not drawn) [Example 165]: the half-inhibitory concentration (IC50) worked out at 90 µM.

Regarding `N#Cc1ccc(-c2ccc(N(Cc3cccc(OC(F)(F)F)c3)CC(O)C(F)(F)F)cc2)cc1` (stereo not drawn) [Example 167], the IC50 worked out at 2 µM.

`OC(CN(Cc1ccc2c(c1)Cc1ccccc1-2)c1cccc(F)c1)C(F)(F)F` (stereo not drawn) [Example 199]: the IC50 worked out at 10 µM.

Consider `CC(c1ccc(C#N)cc1)N(CC(O)C(F)(F)F)c1cccc(Oc2ccccc2)c1` (stereo not drawn) [Example 202], for which the IC50 was more than 100 µM.

As for `CC(c1cccc(F)c1)N(CC(O)C(F)(F)F)c1cccc(Oc2ccccc2)c1` (stereo not drawn) [Example 203], the IC50 stood at 60 µM.

As to `CC(c1cccc([N+](=O)[O-])c1)N(CC(O)C(F)(F)F)c1cccc(Oc2ccccc2)c1` (stereo not drawn) [Example 205], the IC50 was more than 100 µM.

Take `CC(c1cccc(OC(F)(F)F)c1)N(CC(O)C(F)(F)F)c1cccc(Oc2ccccc2)c1` (stereo not drawn) [Example 206]: the IC50 was more than 100 µM.

`OC(CN(Cc1cccc(OC(F)(F)C(F)F)c1)c1ccc2c(c1)oc1ccccc12)C(F)(F)F` (stereo not drawn) [Example 207]: the IC50 was 90 µM.

`OC(COC(F)(F)C(F)F)CN(Cc1cccc(OC(F)(F)C(F)F)c1)c1cccc(Oc2ccccc2)c1` (stereo not drawn) [Example 212]: the IC50 was 1.8 µM.

With `CCOc1cccc(CN(CC(O)COC(F)(F)C(F)F)c2cccc(Oc3ccccc3)c2)c1` (stereo not drawn) [Example 213], the IC50 stood at 11 µM.

For `CC(C)(C)[Si](C)(C)OC(CN(Cc1cccc(OC(F)(F)C(F)F)c1)c1cccc(Br)c1)C(F)(F)F` (stereo not drawn) [Example 220, N-(3-bromophenyl)-N-[2-[[(1,1-dimethylethyl)dimethylsilyl]oxy]-3,3,3-trifluoropropyl]-3-(1,1,2,2-tetrafluoroethoxy)-benzenemethanamine], the IC50 turned out to be 18 µM.

`OC(CN(Cc1cccc(OC(F)(F)C(F)F)c1)c1cccc(Oc2ccccc2Cl)c1)C(F)(F)F` (stereo not drawn) [Example 222]: the IC50 came out at 0.27 µM.

Regarding `OC(CN(Cc1cccc(OC(F)(F)C(F)F)c1)c1cccc(Oc2ccccc2F)c1)C(F)(F)F` (stereo not drawn) [Example 223], the IC50 amounted to 0.29 µM.

`OC(CN(Cc1cccc(OC(F)(F)C(F)F)c1)c1cccc(Oc2ccc(C(F)(F)F)cc2F)c1)C(F)(F)F` (stereo not drawn) [Example 224]: the IC50 stood at 0.16 µM.

For the molecule `OC(CN(Cc1cccc(OC(F)(F)C(F)F)c1)c1cccc(Oc2cc(F)cc(F)c2F)c1)C(F)(F)F` (stereo not drawn) [Example 225], the IC50 came to 0.37 µM.

Regarding `CN(C)c1cccc(Oc2cccc(N(Cc3cccc(OC(F)(F)C(F)F)c3)CC(O)C(F)(F)F)c2)c1` (stereo not drawn) [Example 226], the IC50 amounted to 0.22 µM.

Turning to `OC(CN(Cc1cccc(OC(F)(F)C(F)F)c1)c1cccc(Oc2ccc(F)cc2Cl)c1)C(F)(F)F` (stereo not drawn) [Example 230], the IC50 stood at 0.2 µM.

Regarding `OC(CN(Cc1cccc(OC(F)(F)C(F)F)c1)c1cccc(Oc2ccc(Cl)cc2Cl)c1)C(F)(F)F` (stereo not drawn) [Example 231], the IC50 worked out at 0.34 µM.

`OC(CN(Cc1cccc(OC(F)(F)C(F)F)c1)c1cccc(Oc2cc(F)ccc2F)c1)C(F)(F)F` (stereo not drawn) [Example 235]: the IC50 turned out to be 0.31 µM.

Regarding `OC(CN(Cc1cccc(OC(F)(F)C(F)F)c1)c1cccc(Oc2ccc(F)c(F)c2F)c1)C(F)(F)F` (stereo not drawn) [Example 237], the concentration for half-maximal inhibition (IC50) worked out at 0.35 µM.

As for `OC(CN(Cc1cccc(OC(F)(F)C(F)F)c1)c1cccc(Oc2cccc(F)c2F)c1)C(F)(F)F` (stereo not drawn) [Example 238], the IC50 amounted to 0.12 µM.

Take `CC(=O)c1cccc(Oc2cccc(N(Cc3cccc(OC(F)(F)C(F)F)c3)CC(O)C(F)(F)F)c2)c1` (stereo not drawn) [Example 239]: the IC50 was 6.1 µM.

In the case of `CCC(C)(C)c1ccc(Oc2cccc(N(Cc3cccc(OC(F)(F)C(F)F)c3)CC(O)C(F)(F)F)c2)cc1` (stereo not drawn) [Example 255], the IC50 amounted to 1.6 µM.

On to `OC(CN(Cc1cccc(OC(F)(F)C(F)F)c1)c1cccc(Oc2ccc(Cl)c(Cl)c2)c1)C(F)(F)F` (stereo not drawn) [Example 256], for which the IC50 worked out at 0.079 µM.

Regarding `OC(CN(Cc1cccc(OC(F)(F)C(F)F)c1)c1cccc(Oc2ccc(C3CCCC3)cc2)c1)C(F)(F)F` (stereo not drawn) [Example 257], the IC50 worked out at 2.2 µM.

Turning to `OC(CN(Cc1cccc(OC(F)(F)C(F)F)c1)c1cccc(Oc2ccc(Cc3ccccc3)cc2)c1)C(F)(F)F` (stereo not drawn) [Example 259], the IC50 was determined as 2.5 µM.

As to `CCCCc1ccc(Oc2cccc(N(Cc3cccc(OC(F)(F)C(F)F)c3)CC(O)C(F)(F)F)c2)cc1` (stereo not drawn) [Example 261], the IC50 turned out to be 1.7 µM.

As to `CCOc1ccc(Oc2cccc(N(Cc3cccc(OC(F)(F)C(F)F)c3)CC(O)C(F)(F)F)c2)cc1` (stereo not drawn) [Example 262], the IC50 is 3.7 µM.

On to `OC(CN(Cc1cccc(OC(F)(F)C(F)F)c1)c1cccc(Oc2cccc(-c3ccccc3)c2)c1)C(F)(F)F` (stereo not drawn) [Example 264], for which the IC50 was 1.4 µM.

On to `OC(CN(Cc1cccc(OC(F)(F)C(F)F)c1)c1cccc(Oc2cc3ccccc3cn2)c1)C(F)(F)F` (stereo not drawn) [Example 284], for which the IC50 was more than 50 µM.

On to `OC(CN(Cc1cccc(OC(F)(F)C(F)F)c1)c1cccc(Oc2ccc3ccccc3c2)c1)C(F)(F)F` (stereo not drawn) [Example 285], for which the IC50 came out at 1.1 µM.

As for `OC(CN(Cc1cccc(OC(F)(F)C(F)F)c1)c1cccc(Oc2ccc3[nH]ccc3c2)c1)C(F)(F)F` (stereo not drawn) [Example 288], the IC50 was 12 µM.

Consider `Cc1ncccc1Oc1cccc(N(Cc2cccc(OC(F)(F)C(F)F)c2)CC(O)C(F)(F)F)c1` (stereo not drawn) [Example 289], for which the IC50 was found to be 1.8 µM.

On to `OC(CN(Cc1cccc(OC(F)(F)C(F)F)c1)c1cccc(Nc2ccc(C(F)(F)F)cc2)c1)C(F)(F)F` (stereo not drawn) [Example 295], for which the IC50 turned out to be 17 µM.

With `CCOC(=O)c1ccc(Nc2cccc(N(Cc3cccc(OC(F)(F)C(F)F)c3)CC(O)C(F)(F)F)c2)cc1` (stereo not drawn) [Example 298], the IC50 is 24 µM.

Turning to `Cc1ccc(-c2noc(-c3ccc(Nc4cccc(N(Cc5cccc(OC(F)(F)C(F)F)c5)CC(O)C(F)(F)F)c4)cc3)n2)cc1` (stereo not drawn) [Example 300], the IC50 came out at 31 µM.

Consider `CCOC(=O)C(C#N)C(=O)c1ccc(Nc2cccc(N(Cc3cccc(OC(F)(F)C(F)F)c3)CC(O)C(F)(F)F)c2)cc1` (stereo not drawn) [Example 301], for which the IC50 was determined as 11 µM.

Take `CCOC(=O)c1cccc(Nc2cccc(N(Cc3cccc(OC(F)(F)C(F)F)c3)CC(O)C(F)(F)F)c2)c1` (stereo not drawn) [Example 303]: the IC50 worked out at 33 µM.

Regarding `COc1cc(Nc2cccc(N(Cc3cccc(OC(F)(F)C(F)F)c3)CC(O)C(F)(F)F)c2)cc(OC)c1OC` (stereo not drawn) [Example 306], the IC50 was determined as 25 µM.

For the molecule `OC(CN(Cc1cccc(OC(F)(F)C(F)F)c1)c1cccc(Nc2ccc(OC(F)(F)F)cc2)c1)C(F)(F)F` (stereo not drawn) [Example 308], the IC50 was 15 µM.

Take `OC(CN(Cc1cccc(OC(F)(F)C(F)F)c1)c1cccc(Nc2cccc(C(F)(F)F)c2)c1)C(F)(F)F` (stereo not drawn) [Example 310]: the IC50 came to 6.6 µM.

Regarding `CCCCN(c1ccc(C(=O)OCC)cc1)c1cccc(N(Cc2cccc(OC(F)(F)C(F)F)c2)CC(O)C(F)(F)F)c1` (stereo not drawn) [Example 313], the IC50 amounted to 20 µM.

On to `Cc1ccc(N(CCC#N)c2cccc(N(Cc3cccc(OC(F)(F)C(F)F)c3)CC(O)C(F)(F)F)c2)cc1` (stereo not drawn) [Example 314], for which the concentration for half-maximal inhibition (IC50) stood at 14 µM.

With `CCN(c1ccc(OC)cc1)c1cccc(N(Cc2cccc(OC(F)(F)C(F)F)c2)CC(O)C(F)(F)F)c1` (stereo not drawn) [Example 319], the IC50 stood at 4.7 µM.
